According to paper PMC10072319 (Bioorganic & medicinal chemistry letters, 2023):

Experiments:
T. b. brucei Lister 427 = format: cell-based, Trypanosoma brucei brucei; settings: for activity against T. b. brucei, in words: first pass screen at 4 μM
HEK293 cells = assay: Resazurin cell viability; settings: read-out: HEK293 CC50, 48 h, mean ± SD
T. b. brucei parasites = assay: Time-kill experiment, parasites quantified by hemocytometer cell counting; format: cell-based, Trypanosoma brucei brucei; settings: for time required to kill the parasites: all concentrations tested (46: 1, 2 and 4 μM; pentamidine: 0.5, 1 and 2 μM)
[1] = tested on: T. b. brucei trypanosomes; assay: Washout experiment; format: cell-based, Trypanosoma brucei brucei; settings: 1, 2 and 4 μM for 6, 4 and 2 h, washed three times, monitored a further 48 h

Structure (SMILES): O=C(/C=C/c1ccccc1)CC(=O)/C=C/c1ccccc1 [Compound 5]
- activity against T. b. brucei, in words (T. b. brucei Lister 427): no measurable activity

Structure (SMILES): COc1ccc(/C=C/C(=O)/C=C/c2ccc(OC)c(OC)c2)cc1OC [Compound 16]
- selectivity index (SI = HEK293 CC50/T. b. brucei EC50) (T. b. brucei Lister 427): above 10
- activity against T. b. brucei, in words (T. b. brucei Lister 427): sub-micromolar activity

Structure (SMILES): CN(C)c1ccc(/C=C/C(=O)/C=C/c2ccccc2)cc1 [Compound 40]
- activity against T. b. brucei, in words (T. b. brucei Lister 427): no activity

Structure (SMILES): COc1ccc(/C=C/C(=O)CC(=O)/C=C/c2ccc(OC)c(OC)c2)cc1OC [Compound 8]
- activity against T. b. brucei, in words (T. b. brucei Lister 427): inactive

Structure (SMILES): O=C(/C=C/c1ccc(Cl)c(Cl)c1)CC(=O)/C=C/c1ccc(Cl)c(Cl)c1 [Compound 12]
- activity against T. b. brucei, in words (T. b. brucei Lister 427): inactive

Structure (SMILES): O=C(/C=C/c1ccccc1Cl)/C=C/c1ccccc1Cl [Compound 19]
- selectivity index (SI = HEK293 CC50/T. b. brucei EC50) (T. b. brucei Lister 427): above 10
- activity against T. b. brucei, in words (T. b. brucei Lister 427): sub-micromolar activity

Structure (SMILES): O=C(/C=C/c1ccccc1)/C=C/c1ccccc1 [Compound 3, dibenzylideneacetone]
- CC50 (HEK293 cells): 8.33 ± 0.48 µM
- EC50 (T. b. brucei Lister 427; read-out: T. b. brucei EC50, bloodstream forms, Lister 427, SYBR green, 72 h, mean ± SD): 0.8 ± 0.2 µM

Structure (SMILES): N=C(N)c1ccc(OCCCCCOc2ccc(C(=N)N)cc2)cc1 [Pentamidine, reference compound]
- time required to kill the parasites (T. b. brucei parasites): > 30 h

Structure (SMILES): COc1cc(/C=C2\CCC/C(=C\c3cc(OC)cc(OC)c3)C2=O)cc(OC)c1 [Compound 34]
- activity against T. b. brucei, in words (T. b. brucei Lister 427): inactive

Structure (SMILES): COc1ccc(/C=C/C(=O)/C=C/c2ccc(OC)cc2)cc1 [Compound 29]
- activity against T. b. brucei, in words (T. b. brucei Lister 427): inactive

Structure (SMILES): COc1ccc(/C=C/C(=O)/C=C/c2ccccc2)cc1 [Compound 35]
- activity against T. b. brucei, in words (T. b. brucei Lister 427): no activity

Structure (SMILES): O=C(/C=C/c1ccc(C(F)(F)F)cc1)CC(=O)/C=C/c1ccc(C(F)(F)F)cc1 [Compound 11]
- activity against T. b. brucei, in words (T. b. brucei Lister 427): inactive

Structure (SMILES): COc1cccc(/C=C/C(=O)CC(=O)/C=C/c2cccc(OC)c2)c1 [Compound 7]
- activity against T. b. brucei, in words (T. b. brucei Lister 427): inactive

Structure (SMILES): O=C(/C=C/c1ccccc1)/C=C/c1cccc([N+](=O)[O-])c1 [Compound 46]
- trypanocidal vs trypanostatic activity after washout [1]: trypanocidal rather than trypanostatic
- time required to kill the parasites (T. b. brucei parasites): less than 24 h
- time required to kill the parasite (T. b. brucei parasites; at 2 and 4 μM): less than 6 h

Structure (SMILES): COc1cc(/C=C/C(=O)/C=C/c2cc(OC)c(OC)c(OC)c2)cc(OC)c1OC [Compound 13]
- activity against T. b. brucei, in words (T. b. brucei Lister 427): sub-micromolar activity

Structure (SMILES): COc1cccc(/C=C/C(=O)/C=C/c2cccc(OC)c2)c1 [Compound 28]
- activity against T. b. brucei, in words (T. b. brucei Lister 427): inactive
